Experimental data as given in patent US6645903B2, “Fluoroborane salts comprising a reactive cation and uses thereof” (Colorado State University Research Foundation, priority 2000, dated 2003).

What was measured:
[1] = Stability in solution and on storage; format: physicochemical
Experimental: where R^1, R^2, Q, M^1, m, n, and q are those defined above. […] In addition, unlike many other aluminum metal catalysts, Compound of Formula IA has a relatively high solubility in aliphatic hydrocarbon solvents. For example, the compound AlMe2(1-Dd-CB11F11), where Dd is dodecyl, is soluble in hexanes and methylcyclohexane and stable for at least 10 days at 25° C.
A suspension of CPh3(1-Et-CB11F11) (0.412 g, 0.67 mmol) in pentane (40 ml) was treated with a solution of Si(i-Pr)3H (0.215 g, 1.36 mmol, 2 equiv.) in pentane (10 ml) for 20 hours at room temperature. The mixture was treated with more Si(i-Pr)3H (0.56 g, 3.54 mmol) for another 20 hours. (Note, that a large excess of Si(i-Pr)3H (˜7 equiv.) required for the reaction to go to completion. A slightly pink pentane solution was filtered from a small amount of red-brown oily solid (˜20 mg, which upon dissolving of in acetonitile was identified as a mixture of CPh3(1-Et-CB11F11) and [Si(i-Pr)3(CD3CN)][1-Et-CB11F11]. The volume of the pentane solution was reduced to ˜5 ml, which caused the formation of white solid. The solid was separated by filtration, washed three times with 1 ml of pentane and dried under nitrogen atmosphere inside the glove box. The yield of Si(i-Pr)3(1-Et-CB11F11) as an off-white crystalline solid was 0.198 g (56%). […]

[2] = Polymerization of ethylene in hexanes; conditions: hexanes solution, 24° C., 703 torr ethylene, 18 h
Experimental: A suspension of [CPh3][1-C12H25-CB11F11] (5.0 mg) in 0.5 ml of methylcyclohexane-d14 was treated with 0.5 ml of methylcyclohexane-d14 solution of Al(CH3)3 (2.2 mg) for 20 h. […] The filtrate was diluted with 7 ml of hexanes and transferred into a 50 ml Kontes tube. The solution was treated with 703 torr of ethylene for 18 h at 24° C. and small amount of white solid was formed. The mixture was treated with 3 ml of methanol for 20 minutes. A solid polyethylene was collected (3 mg) by filtration and characterized by DSC (Tm=126° C.).

[3] = Polymerization of ethylene with one equivalent of Cp2ZrMe2; conditions: with Cp2ZrMe2, hexanes, 660 torr ethylene, from ethylene pressure decrease
Experimental: A suspension of [CPh3][1-C12H25-CB11F11] (5.0 mg) in 0.5 ml of methylcyclohexane-d14 was treated with 0.5 ml of methylcyclohexane-d14 solution of Al(CH3)3 (2.2 mg) for 20 h. […] The filtrate was diluted with 7 ml of hexanes and transferred into a 50 ml Kontes tube. The solution was treated with 1 ml of hexanes solution of Cp2ZrMe2 (1.3 mg). The mixture was treated with 660 torr of ethylene. The ethylene pressure was decreased to 470 torr within 5 minutes due to the formation of polyethylene (white solid). More ethylene (812 torr) was added to the mixture and the ethylene pressure was decreased to 295 torr within the next 2 hours. The mixture was quenched with 5 ml of methanol and stirred for 20 minutes. A solid polyethylene was collected (210 mg) by filtration and characterized by DSC (Tm=129° C.). The catalytic activity during the first 5 minutes (good agitation) was calculated based on the ethylene pressure decrease and was at least 150 kg PE/mol Zr·h·atm.

[4] = Zirconocene catalyzed selective dimerization of 1-hexene; conditions: for turnovers number within the first five minutes: co-catalyst with Cp2ZrMe2, first five minutes
Experimental: A solution of Al(CH3)2(1-[…]-CB11F11) (6.1 mg, 10.8 μmol) in 0.28 ml of methylcyclohexane was treated with a solution of Cp2ZrMe2 (2.3 mg, 9.1 μmol) in 1-hexene (3.654 g). The resulted mixture was stirred under a nitrogen atmosphere and the samples were taken from the reaction mixture after 5 minutes and 55 minutes. According to ^1H NMR spectra of the reaction mixtures approximately 33% of 1-hexene were reacted within 5 minutes, and approximately 99% of 1-hexene were reacted within 55 minutes. The reaction was exothermic as indicated by the significant self-heating of the reaction mixture during the reaction. The reaction products were analyzed by ^1H, ^13C NMR and GC-MS. According to the analysis the reaction mixture contained 83% of 1-hexene dimerization products (more than 95% of 2-butyl-1-octene) and 17% of 1-hexene isomerization products (the distribution of hexene isomers was as follows: E-2 hexene-56%, Z-2 hexene-26%, E-3 hexene-15%, and Z-3 hexene-3%). The total turnovers number of the activated zirconocene catalyst was calculated to be 4780 (87 TON·min^−1). The turnovers number within the first five minutes of the reaction was approximately 315 TON·min^−1

[5] = Experimental: Hexanes and an excess of trimethylaluminum were removed under vacuum.
A mixture of [CPh3][(CH3)3NB12F11] […] A mixture was stirred under a nitrogen atmosphere for 20 h.
The orange microcrystalline compound (CPh3)2B12F12 (0.195 g, 0.231 mmol) was treated with 2 ml of toluene solution of AlMe3 (0.161 g, 2.240 mmol). […] The mixture was stirred for additional 40 hours.

[6] = cited from earlier work
[7] = cited from earlier work; remark: listed apart in the source
[8] = similar transformation, comparison value; cited from earlier work
[9] = Arene-olefin coupling of toluene-d8 with ethylene; conditions: toluene-d8, 656 torr ethylene, 14.5 hours, 24° C.
Experimental: Compounds of Formula IA are useful in a variety of organic reactions including in an arene-olefin coupling reaction. Thus, when the above reaction was repeated under one atmosphere of ethylene (CH2═CH2), a GC-MS analysis of the reaction mixture after 14.5 hr at 24° C. indicated the catalytic formation of all three positional isomers (i.e., the ortho (47%), meta (35%), and para (18%) isomers) of C6D4(CD3)(CH2CH2D) (the number of turnovers in this particular experiment was approximately 60-70. Without being bound any theory, the proposed catalytic scheme, which includes the catalytic activation of aromatic C—H bonds and the catalytic insertion of ethylene into an aluminum-aryl bond, is shown in FIG. 1 in a generic scheme using C6H6 as the substrate instead of C6D5CD3 for simplicity (the coordinated fluorocarborate anion (i.e., Q moiety) has also been omitted from the scheme for simplicity). It should be appreciated that the AlPh2^+1 species shown in FIG. 1 may in fact be a mixture of AlPh2^+1 and AlMePh^+1 species.
A compound Al(CH3)2(1-CH3-CB11F11) (2 mg) was dissolved in 1 ml of toluene-d8 and transferred into a sealable NMR tube. The solution was degassed under vacuum and treated with 656 torr of ethylene for 14.5 hours at 24° C. Proton NMR spectrum of the solution indicated the formation of ethyltoluene. […]

[10] = Alkylation of benzene with 1-hexene; conditions: benzene + 1-hexene, 25 hours
Experimental: A mixture of Al(CH3)2(1-CH3-CB11F11) (2.5 mg, 4.4 μmol), benzene (0.964 g, 12.4 mmol) and 1-hexene (0.224 g, 2.7 mmol) was stirred for 25 hours under a nitrogen atmosphere. […] A GC-MS analysis of the reaction mixture indicated the formation of monohexylbenzenes (29%), dihexylbenzenes (20%) and trihexylbenzenes (51%). The relative amounts of 2-phenylhexane and 3-phenylhexane were 70% and 30%, respectively. Total turnovers number of aluminum alkyl catalyst was calculated to be approximately 606 (24 TON/h).

In the case of Al(CH3)2(1-C12H25-CB11F11), the stable in solution ([1]; hexanes and methylcyclohexane, 25° C.) is reported as “at least 10 days”, the “activity for polymerization of ethylene” value [2] is reported as “approximately 33 g PE/mol Al·h·at” and the “catalytic activity during the first 5 minutes” value [3] is reported as “at least 150 kg PE/mol Zr·h·atm”. The “total turnovers number of the activated zirconocene catalyst” value ([4]; co-catalyst with Cp2ZrMe2, 1-hexene, 55 minutes) was 4780, the “turnover rate over whole reaction” value ([4]; co-catalyst with Cp2ZrMe2, 55 minutes) was 87 TON·min^−1 and the “turnovers number within the first five minutes” value [4] was 315 TON·min^−1. For the same substance, the “turnovers number within the first five minutes” value ([4]; listed as Al(CH3)2(1-C2H25-CB11F11)) was “approximately 315 TON·min^−1”, the 1-hexene reacted ([4]; within 5 minutes) was “approximately 33%” and the 1-hexene reacted ([4]; within 55 minutes) was “approximately 99%”.
For Al(CH3)2((CH3)3NB12F11), the “solubility in acetonitrile-d3” value [5] was “completely dissolved” and the “solubility in toluene” value [5] was “not soluble”.
In the case of methylalurnoxane [MAO], the “solubility in aliphatic hydrocarbon solvents” value [6] is given as “limited solubilities”, the “stability when stored in solution” value [7] is given as “not stable” and the “activity, conventional co-catalyst” value [8] is given as 30 TON ·min^−1. For the same substance, the “total turnovers number of the catalyst, conventional co-catalyst” value [8] was 500.
In the case of Si(i-Pr)3(1-Et-CB11F11), the “sensitivity to traces of water” value ([1]; solid, storage under nitrogen) is reported as “extremely sensitive”.
For Al(CH3)2(1-CH3-CB11F11), the “number of turnovers (TON), formation of ethyltoluene” value [9] was “approximately 66”, the “number of turnovers (TON), formation of ethyltoluene” value ([9]; listed as AlMe2(1-Me-CB11F11)) was 60-70 and the “total turnovers number of aluminum alkyl catalyst” value [10] was “approximately 606”. The turnover rate [10] was 24 TON/h.
In the case of (AlMe2)2B12F12, the “solubility in acetonitrile-d3” value [5] is reported as “dissolved” and the “solubility in toluene” value [5] is reported as “not soluble”.
